Test results from article PMC8494430, “Development of a fluorogenic ADAMTS-7 substrate” (Journal of Enzyme Inhibition and Medicinal Chemistry, 2021).

Target: T1, ADAMTS-7 (Homo sapiens, UniProt Q9UKP4)
T1 construct: the recombinant construct ADAMTS7-T8, which lacks the C-terminal PLAC domain; made in house
T1 sequence (Q9UKP4 237-1631 limits assumed): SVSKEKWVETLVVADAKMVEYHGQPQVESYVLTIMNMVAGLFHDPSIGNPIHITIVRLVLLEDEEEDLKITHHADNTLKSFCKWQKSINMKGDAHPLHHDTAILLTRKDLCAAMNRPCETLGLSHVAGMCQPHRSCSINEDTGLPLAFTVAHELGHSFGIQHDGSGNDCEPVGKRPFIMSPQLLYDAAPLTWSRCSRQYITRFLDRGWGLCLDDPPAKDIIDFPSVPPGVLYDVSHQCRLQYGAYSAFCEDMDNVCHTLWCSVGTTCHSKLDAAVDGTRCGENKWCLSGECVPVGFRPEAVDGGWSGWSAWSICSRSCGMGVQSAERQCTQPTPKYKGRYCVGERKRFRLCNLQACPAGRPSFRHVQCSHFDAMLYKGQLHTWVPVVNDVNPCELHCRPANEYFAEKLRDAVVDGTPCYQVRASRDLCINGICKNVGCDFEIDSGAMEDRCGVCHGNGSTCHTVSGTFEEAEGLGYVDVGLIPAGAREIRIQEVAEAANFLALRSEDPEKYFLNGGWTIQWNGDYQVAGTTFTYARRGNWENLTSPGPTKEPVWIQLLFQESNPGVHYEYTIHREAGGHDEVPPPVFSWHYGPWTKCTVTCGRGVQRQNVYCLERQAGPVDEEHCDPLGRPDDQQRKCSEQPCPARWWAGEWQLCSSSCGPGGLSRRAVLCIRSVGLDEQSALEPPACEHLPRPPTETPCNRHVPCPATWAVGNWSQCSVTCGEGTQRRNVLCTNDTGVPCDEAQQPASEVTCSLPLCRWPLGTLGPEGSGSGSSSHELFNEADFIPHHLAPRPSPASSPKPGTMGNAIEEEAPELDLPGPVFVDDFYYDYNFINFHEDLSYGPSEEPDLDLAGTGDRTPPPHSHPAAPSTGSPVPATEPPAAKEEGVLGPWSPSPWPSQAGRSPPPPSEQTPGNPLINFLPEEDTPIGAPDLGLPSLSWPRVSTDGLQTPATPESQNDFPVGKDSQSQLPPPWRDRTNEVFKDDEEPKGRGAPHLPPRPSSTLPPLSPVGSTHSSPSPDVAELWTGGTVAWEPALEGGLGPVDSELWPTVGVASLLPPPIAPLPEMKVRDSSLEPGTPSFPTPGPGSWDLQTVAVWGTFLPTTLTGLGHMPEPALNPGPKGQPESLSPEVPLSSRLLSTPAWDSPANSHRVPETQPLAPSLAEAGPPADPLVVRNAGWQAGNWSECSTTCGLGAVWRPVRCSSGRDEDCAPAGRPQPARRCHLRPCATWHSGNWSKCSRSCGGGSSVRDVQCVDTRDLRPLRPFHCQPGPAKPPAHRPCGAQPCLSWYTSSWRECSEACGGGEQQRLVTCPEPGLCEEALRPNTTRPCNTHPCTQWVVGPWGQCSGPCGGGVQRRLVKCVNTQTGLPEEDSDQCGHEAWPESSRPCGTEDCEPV
Assay: Inhibition of ADAMTS-7 cleavage of FRET substrate ATS7FP7
Format: biochemical
Procedure: All enzyme assays were conducted in TNC-B buffer (50 mM Tris- HCl, pH 7.5, 150 mM NaCl, 10 mM CaCl2, and 0.02% NaN3) at 37 °C in 384 well plates (Cat. No: 784900, Greiner Bio-One, Austria). To avoid the formation of inhibitor or peptide aggregates, the detergent Brij-35 (0.05%) was added to TNC-B[13]. For inhibition studies, stock solutions of chemical compounds were prepared in dimethyl sulfoxide (DMSO) (10 mM). […] Blank samples were prepared using buffer only and the rate of cleavage for blank reactions was subtracted from the rates measured in the presence of enzyme. Upon addition of the indicated ADAMTS-7 FRET substrates (40 µM), the fluorescence was measured immediately using a FLUOstar Omega microplate reader (BMG Labtech, Germany) with an excitation filter wavelength of 485 nm and an emission filter wavelength of 520 nm.

## O=C(NCCC[C@@H](NS(=O)(=O)c1ccc(OCc2ccc(F)cc2Cl)cc1)C(=O)NO)c1ccccc1 [EDV33]
ATS7FP7 40 μM, 1 h preincubation, 37 °C
  IC50: 330 ± 70 nM
Against ATS7FP7
  increase of ADAMTS-7 inhibition relative to JG23: approximately 2 fold
read-out: Ki app (ATS7FP7 substrate)
  Ki: 68 ± 14 nM
